Measured values as given in PMC11164811 (Investigational New Drugs, 2024).
Like-named read-outs stand apart in the source and are kept apart here.

How the values were obtained:
[1] = Plasma pharmacokinetics of selumetinib and N-desmethyl selumetinib on day 1 of cycle 1; assay type: in vivo, human
Text: Additional predose samples were collected on days 1 and 14 of cycle 2 and on days 1 and 14 of cycle 5.
(§1) No formal hypothesis testing was planned.

[2] = test system: patients with advanced or metastatic solid tumors; experiment: Dose-limiting toxicities during first 21 days, phase 1b MK-5618-001; assay type: in vivo, human; conditions: selumetinib twice daily 2 weeks on/1 week off in combination with pembrolizumab
Text: At least 3 patients were enrolled at each dose level; the modified toxicity probability interval (mTPI) design, with a target dose-limiting toxicity (DLT) rate of ~30%, was used to identify a potential maximum tolerated dose. Dose escalation and de-escalation decisions were based on the mTPI design and were dependent on the number of patients enrolled and number of DLTs observed at the particular dose level (Online Resource 1). Dose finding was considered complete after 14 patients were enrolled at any of the tested dose levels and the decision was made to stay at that dose level.
as §1
Any treatment-related toxicity that causes the patient to discontinue treatment during cycle 1 […]
Cardiac disorders including
• Absolute decrease in left ventricular ejection fraction >10% compared with baseline and below the institution’s lower limit of normal • Grade ≥3 left ventricular systolic dysfunction
• Other cardiac disorders grade ≥3
Vascular disorders including
• Grade ≥3 hypertension requiring >1 drug or more intensive therapy […]
assessment. […] The occurrence of any of the toxicities listed in this table was considered a dose-limiting toxicity if assessed by the investigator to be possibly, probably , or definitely related

SMILES | Observed t1/2, range across dose levels ([1]; human, in vivo) [h] | Maximum tolerable dose level [2] | half-life ([1]; human, in vivo, day 1 of cycle 1, selumetinib 50-125 mg, read-out: Observed t1/2, range across dose levels) [h] | half-life ([1]; human, in vivo, plasma, day 1 of cycle 1, Selumetinib 125 mg + Pembrolizumab 200 mg, n = 11, geometric mean (% geometric CV), read-out: t1/2 (converted)) [h] | AUC0‒last ([1]; plasma, day 1 of cycle 1, Selumetinib 125 mg + Pembrolizumab 200 mg, n = 14, geometric mean (% geometric CV))
O=C(NOCCO)c1cc2nc[nH]c2c(F)c1Nc1ccc(Br)cc1Cl [N-Desmethyl selumetinib, N-desmethyl selumetinib] | 3.07 to 3.94 |  |  |  | 
Cn1cnc2c(F)c(Nc3ccc(Br)cc3Cl)c(C(=O)NOCCO)cc21 [Selumetinib, selumetinib] |  | exceeds 125 mg | 2.82 to 3.82 | 2.82 | 4430 (57.6) h · ng/mL
